# Source: a melting point compilation (Tetko et al.; mined from patent text by program, amines drawn as free bases though some values may be those of a salt)
row,Structure (SMILES),melting point
1,COc1c(Cc2c[nH]c3cccc(C(=O)O)c23)[nH]c(=O)c(CC(C)C)[n+]1[O-],160 to 164 °C
2,Nc1nc2[nH]c(=S)sc2c(=O)[nH]1,> 300 °C
3,O=C(CCCCCCNC(=O)C(=O)c1cn2c3c(cccc13)CCC2)NO,158 to 159 °C
4,COc1cc(Nc2nccc(NS(=O)(=O)c3ccccc3)n2)cc(OC)c1OC,164 °C
5,CCN(CC)CCOC1=C(c2ccccc2)CN(Cc2ccc(Cl)cc2)C1=O,143 to 145 °C
6,O=C(c1ccccc1)c1nc2ncccc2o1,151 to 153 °C
7,CC(C)Oc1ccc(COc2ccc(CC(=O)O)cc2Cl)cc1,115 to 116 °C
8,CCNC(=O)c1cc(N)c([N+](=O)[O-])cc1OC,235 to 239 °C
9,N#Cc1c(NCc2ccc(N)cc2)n[nH]c1N,168 to 170 °C
10,COc1ccc(C(=O)N2CCc3cc(OCc4ccccc4)c(OC)cc3C2=O)cc1,151 to 152 °C
11,COc1nc(NC(=O)NS(=O)(=O)c2csc3ccccc23)nc(OC)n1,152 °C
12,O=C(O)c1c[nH]c2oc3ccccc3c(=O)c2c1=O,335 to 340 °C
13,CN(C)C(=O)c1c(-c2ccc(C(F)(F)F)cc2)ccc2ccccc12,184 to 186 °C
14,CCSc1nc2ccccc2c(=O)n1NC(=O)Nc1ccc(Cl)cc1,234 to 235 °C
15,CC(=O)c1cc(Br)c(OCCCN2CCC(c3noc4cc(F)ccc34)CC2)c(Br)c1,102 to 103 °C
16,CNC(=S)NCCN1CCC(Nc2nc3cncnc3n2Cc2ccc(F)cc2)CC1,206 °C
17,NC(=S)NC(c1ccccc1)c1ccc(Cl)cc1 (configuration not stated),173 to 175 °C
18,COC(=Cc1ccc(-c2cccc(N(C)C(=O)NC3CCCCC3)c2)cc1)C(=O)O,192 °C
19,CC(C)(Sc1nc2ccccc2cc1-c1ccccc1)C(=O)O,144 to 146 °C
20,CCCCc1ncc(-c2cccc(C(=O)O)c2)n1Cc1ccccc1Cl,200 to 202 °C
21,CN(C)c1nc(N(C)C)c2ccccc2n1,74 to 76 °C
22,OC(COc1ccccc1Br)C(Cl)(Cl)Cl (configuration not stated),88 to 90 °C
23,O=C1C2=C(CCCC2)C(=O)N1c1cc([N+](=O)[O-])ccc1F,154 to 156 °C
24,CCOC(=O)/C=C(C)/C(F)=C/C=C(C)/C=C/c1c(Cl)cc(OC)c(Cl)c1Cl,140 to 142 °C
25,COCCN1CCN(CCc2ccccc2Nc2ncnc3[nH]cc(C(=O)c4ccccc4)c23)CC1,192 to 193 °C

row,Structure (SMILES),melting point
1,CCOC(=O)Cc1ccc(-c2nc(COc3ccc(COc4nn(-c5ccccc5)cc4/C=C\c4cnn(CC)c4)cc3OC)c(C)o2)cc1,140 to 141 °C
2,CC1=CC(=C(C#N)C#N)C=C(C)N1CCOCCCl,148 to 149 °C
3,CCOc1ccccc1N1C(=O)CC(N(O)c2ccccc2)C1=O (configuration not stated),174 to 175 °C
4,COc1ccc(N2CCOCC2)c2sc(-c3ncc(-c4csc5ccccc45)[nH]3)nc12,161 to 162 °C
5,O=C(O)CN(CCN(CC(=O)O)C(Cc1ccccc1)C(=O)O)CCN(CC(=O)O)C(Cc1ccccc1)C(=O)O (configuration not stated),111 to 115 °C
6,CN1C(=O)C2(COc3cc4c(cc32)OCCO4)c2c1cccc2-n1ccccc1=O (configuration not stated),212 to 214 °C
7,COc1ccc(CN(CCN(C)C)c2ccc(C(=O)O)cn2)cc1,188 to 190 °C
8,CCCCNC(=O)Nc1ccc(N(CC)CC)cc1C(=O)NCC1CCN(C(c2ccccc2)c2ccccc2)CC1,158 to 160 °C
9,Nc1ccc(-n2nnn(CCCC3CCCCC3)c2=O)cc1,64 to 69 °C
10,CC1(C)OCCn2c1nc(C(=O)NCc1ccc(F)cc1P(=O)(O)OCc1ccccc1)c(OCc1ccccc1)c2=O,142 °C
11,CC(=O)N=C(OC(C)=O)N1CCSC1c1ccccc1OCCN1CCN(c2cccc(F)c2)CC1 (configuration not stated),114 to 115 °C
12,CCCCCCC(C)(C)c1cc(OCc2ccccc2)c(C2=C(CC#N)CCC(C)C2)c(OCc2ccccc2)c1 (configuration not stated),85 to 86 °C
13,C=Cc1nc(-c2cn(C)c3ccccc23)no1,54 to 55 °C
14,CC(=O)N[C@@H](CO)C(=O)NCCO[N+](=O)[O-],91 to 93 °C
15,Cc1nc(-c2ccccc2)nc(OCC(=O)N(CC2CC2)c2ccccc2)c1C,119 to 121 °C
16,CCCc1cc2cc(O)c(F)cc2c(Oc2ccc(/C=C/C(=O)O)cc2)c1-c1ccccc1,118 to 120 °C
17,O=C(c1cc[nH]c1)c1ccc2ccccc2c1,134 to 136 °C
18,Cn1cc(Br)cc(Nc2cc3c(cn2)CCN(C(=O)OC(C)(C)C)C3)c1=O,126 to 128 °C
19,O=C(Nc1ccc(Oc2ccnc(NCC3OCCO3)n2)c2ccccc12)c1cc(F)cc(N2CCOCC2)c1,122 to 124 °C
20,N#Cc1c(N2CCCCC2)cc(-c2ccc(F)cc2)c2c1-c1ccccc1C2,176 to 178 °C
21,CC(C)(C)NCC(O)c1cc(Cl)c(N)c([N+](=O)[O-])c1 (configuration not stated),148 to 149 °C
22,Cc1cccc(C2CCN(C(=O)CCC(=O)c3ccc4c(c3)CCNCC4)CC2)c1,91 to 93 °C
23,Cc1[nH]c(C=O)c(C)c1CCO,125 to 127 °C
24,CC#CCOc1ccc(S(=O)(=O)C2(C(=O)O)CCN(Cc3ccc(C)cc3)CC2)cc1,188 °C
25,Cc1nnc2n1-c1ccc(Br)cc1C(c1ccccc1Cl)=CC2,250 to 252 °C

row,Structure (SMILES),melting point
1,C=C(CCCl)C(=O)c1ccc(OC)c(Cl)c1Cl,58 to 60 °C
2,O=C1CC2CCC1C(Nc1ccc(Cl)cc1)C21CCCCC1 (configuration not stated),139 to 141 °C
3,CC(C)c1c(C(=O)Nc2ccccc2)c(-c2ccccc2)c(-c2ccc(F)cc2)n1CCC(O)CC(O)CC(=O)N(c1ccccc1)c1ccccc1 (configuration not stated),228 to 233 °C
4,COCCC1CCCCN1C(=O)C=Cc1c(-c2ccccc2)nn2ccccc12 (configuration not stated),139 to 140 °C
5,CCOc1nn(Cc2ccc(Cl)cc2Cl)cc1CCCOc1cc(CCC(=O)O)n(-c2ccccc2)n1,132 to 133 °C
6,CCCNCC1Cc2ccc(C3=NNC(=O)CC3)cc2C1 (configuration not stated),82 to 84 °C
7,O=S(CCC=C(F)F)NCc1ccc(Cl)cc1 (configuration not stated),37 to 38 °C
8,CC(C)(C)OC(=O)N1CCC[C@@H](Nc2nccc(-c3c(-c4cccc(C(N)=O)c4)nc4sccn34)n2)C1,161 to 165 °C
9,Cc1ccn(-c2ccc(C(=O)N3Cc4ccc(C)n4Cc4ccccc43)c(Cl)c2)n1,178 to 180 °C
10,CCN(CC)C(=O)Cc1c(C)n(Cc2ccccc2)c2ccc(OCc3nc4ccccc4s3)cc12,111 to 112 °C
11,COc1cccc(Oc2ncccc2C#N)c1,66 to 68 °C
12,CCOC(=O)Cc1c[nH]c2cc(C(F)(F)F)nn2c1=O,290 to 293 °C
13,COc1ccc(C2=NN(C3CCN(C(=O)c4ccccc4OC)CC3)C(=O)C(C)(C)C2)cc1OC,157 to 159 °C
14,O=C(Nc1ccc(C(=O)N2CCCCc3sc(Cl)cc32)cc1)c1ccc(Cl)cc1Cl,187 to 189 °C
15,COCC[C@H]1CN(C2=Nc3ccccc3Nc3ccc(C(F)(F)F)cc32)CCN1,71 to 82 °C
16,CCCCNc1c(C(=O)OCC)c(C)nc2c1ncn2C,62 to 63 °C
17,O=c1cnc(-c2cccc(Cc3ccccc3)c2)nn1CC(F)(F)F,95 to 96 °C
18,Cc1cc2c(c(C3=NNC(=O)CC3C)c1)OCC(=O)N2 (configuration not stated),252 to 254 °C
19,Cc1cc(-c2cc(C(F)(F)F)n3ncc(C(=O)Nc4cccc(S(=O)(=O)N5CCOCC5)c4)c3n2)ccc1C(F)(F)F,272 °C
20,CC(C)(C)C1(O)CCN(C(=O)C2c3ccccc3CCc3ccccc32)CC1,189 to 190 °C
21,c1ccc(Cn2cnc3c(OC4CN5CCC4CC5)nccc32)cc1 (configuration not stated),162 to 183 °C
22,CN(Cc1ccccc1S(=O)c1nc2ccccc2[nH]1)c1ccccc1 (configuration not stated),164 to 166 °C
23,COc1ccc(C=C2CCN(C(=O)OCc3ccccc3)CC2)cc1[N+](=O)[O-],107 to 108 °C
24,COc1ccc(N2CCN(c3c(C)c(C)c4c(c3C)C(c3ccc(C)nc3)C(C)(C)O4)CC2)cc1 (configuration not stated),131 to 133 °C
25,N#Cc1c(N2CCN(C(=O)c3cccs3)CC2)c2ccccc2n(-c2ccccc2)c1=O,289 °C

row,Structure (SMILES),melting point
1,CCCCCCCCCCCc1ccc(F)c(-c2nc(-c3ccccc3Cl)nn2C)c1,35 to 37 °C
2,COC(=O)c1ccc(Cn2c(=O)c(-c3c(Cl)cccc3Cl)cc3cnc(N)nc32)cc1,235 to 237 °C
3,COc1ccccc1C(O)(CC#N)c1ccccc1OC,170 to 180 °C
4,O=c1c2c(Cl)cc(Cl)cc2n(Cc2ccccc2)c(=O)n1Cc1cccc(Br)c1,121 to 128 °C
5,COC(=O)c1cc(OC)c(OS(=O)(=O)C(F)(F)F)cc1N,85 to 87 °C
6,Cc1cccc(-c2ccc(C(=O)O)cc2)c1,198 to 200 °C
7,O=C(Nc1ccc(C(F)(F)F)cc1)c1ccccc1NCc1ccncc1,171 to 175 °C
8,N#CN1C2CCC1CC(c1n[nH]c3ccccc13)C2 (configuration not stated),201 to 202 °C
9,CCOC(=O)c1cn(CC)c2cc(F)c(F)c(C)c2c1=O,157 to 159 °C
10,COCCc1nc2c(N)nc3ccccc3c2n1CCCCNC(=O)c1cnc2ccccc2n1,85 to 87 °C
11,CCCCCCCNC(=O)Oc1ccc2c(c1)c(C)cn2NCCCc1ccncc1F,90 to 93 °C
12,CC(=O)SCCC(=O)N1CCC[C@H]1C(=O)O,89 to 90 °C
13,O=C1Nc2cc(F)c(F)cc2N2CCN(C(=O)OCc3ccccc3)CC12 (configuration not stated),226 to 228 °C
14,Cc1ncccc1Oc1ccc(NC(=O)C=Cc2ccccc2Cl)cn1,187 to 189 °C
15,COc1cc(C(=O)c2ccccc2)cc(C#N)c1OC,98 to 100 °C
16,CCC(=O)N[C@@H](C)C(=O)N1CCC[C@H]1C(=O)NC1CCCCCCC1,142 to 143 °C
17,COc1cc2c(-c3cc4cccnc4[nH]3)cn(C)c2cc1O,250 °C
18,CC(Oc1ccc(Oc2ncc(Cl)cc2N)cc1)C(=O)O (configuration not stated),152 to 154 °C
19,CC1(N)CN(c2c(F)cc3c(=O)c(C(=O)O)cn(C4CC4)c3c2F)C1,298 to 300 °C
20,Cn1c(=O)nc(-c2ccccc2F)c2c3c(sc21)CCCC3,221 to 222 °C
21,CCc1cc2c(=O)n3cc(C(=O)OC)ccc3nc2s1,151 to 152 °C
22,COC(=O)c1cc(=NS(=O)(=O)c2ccc(C)cc2)c2c(Cl)cc(Cl)cc2[nH]1,210 to 212 °C
